Results reported in US20140213583A1, “PI3K Inhibitor for Use in the Treatment of Bone Cancer or for Preventing Metastatic Dissemination Primary Cancer Cells into the Bone” (NOVARTIS AG, priority 2011, published 2014).
Entries after “also recorded” stand apart in the source; their conditions may differ.

Columns and labels:
[1] = test system: 453-EGFP cells (MDA-MB-453 human breast cancer cells expressing EGFP); assay: Metastasis therapy with Compound A in Rag2-/-;Il2rg-/- mice challenged i.v. with 453-EGFP cells; type: in vivo; settings: 50 mg/kg per os daily
Source text: Rag2^−/−;Il2rg^−/− breeders were kindly given by Drs. T. Nomura and M. Ito of the Central Institute for Experimental Animals (Kawasaki, Japan). Mice were then bred in our animal facilities under sterile conditions. Athymic Crl:CD-1-Foxn1^nu/nu mice (referred to as nude mice) were purchased from Charles River Italy and kept under sterile conditions. Experiments were authorized by the institutional review board of the University of Bologna and done according to Italian and European guidelines.
MDA-MB-453 and BT-474 breast cancer cell lines were originally obtained from by Dr. Serenella M. Pupa (Istituto Nazionale dei Tumori, Milan, Italy). Cell lines were authenticated by DNA fingerprinting on the 11 Nov. 2010 (performed by DSMZ, Braunschweig, Germany). Cells were routinely cultured in Roswell Park Memorial Institute (RPMI) medium supplemented with 10% foetal bovine serum and were maintained at 37° C. in a humidified 5% CO2 atmosphere. All medium constituents were purchased from Invitrogen, Milan, Italy. In order to visualize metastatic cells/lesions, breast cancer cell lines were transfected with a plasmid expressing Enhanced Green Fluorescent Protein (pEGFP-N1, Clontech, Mountain View, Calif.) using Lipofectamine 2000 (Invitrogen). Stable transfectants were selected using G418 (Invitrogen). EGFP expression was monitored by fluorescence microscopy and quantified by cytofluorimetric analysis.
Nine-20-week-old female Rag2^−/−;Il2rg^−/− mice were used throughout this work. Local tumors were induced with 10^7 viable human tumour cells injected either subcutaneously in the right hind leg or in the fat pad of the fourth (abdominal) left mammary gland in 0.2 ml of PBS. Tumor diameters were periodically measured with digital calipers and tumor volumes calculated as […], where a=maximal tumor diameter and b=major tumor diameter perpendicular to a. For intravenous (i.v.) administrations, 2×10^6 cells in 0.4 ml PBS were injected in a tail vein. Nude mice (5-6 week-old) were treated i.v. with anti-asialo GM1 antiserum (Wako, Dusseldorf, Germany), 0.4 ml of a 1:30 dilution in PBS, to deplete NK activity, 24 h prior to the injection of human tumour cells. Pilot experiments were performed to assess for each cell line the time at which experimental metastases could be detected.
Tumor-bearing mice were sacrificed at various times (see Results), depending on tumor and metastasis growth, and were subjected to an accurate necropsy. Lungs were stained with black India ink to better outline metastases and fixed in Fekete's solution. Lung and liver metastases were counted using a dissection microscope. When EGFP-expressing cells were injected, whole mice and dissected organs were carefully examined using a Lightools imaging system (Lightools Research, Encinitas, Calif.) to detect fluorescent metastatic deposits. Quantification of metastatic load in brain and bone marrow was performed by immunofluorescence followed by cytofluorimetric analysis and by Real-Time PCR. Brain was minced with scissors and passed through a 70 μm cell strainer (Becton Dickinson, Bedford, Mass., USA) to obtain a homogeneous cell suspension. Bone marrow was flushed from both femurs in PBS and filtered through a 70 μm strainer. A mouse monoclonal antibody against human HER-2 (clone Neu 24.7, Becton Dickinson, San Jose, Calif., USA) labeled with phycoerythrin was used to quantify human cells by cytofluorometric analysis. Real-Time PCR was performed on genomic DNA extracted with 10 mM Tris-HCl buffer pH 8.3 containing 50 mM KCl, 2.5 mM MgCl2, 0.01% gelatin, 0.45% igepal, 0.45% tween 20 and 120 μg/ml proteinase K (all reagents from Sigma, Milan, Italy) by an overnight incubation at 56° C. followed by […] incubation at 95° C. to inactivate the proteinase K. A sequence of the α-satellite region of the human chromosome 17 was amplified. […]

[2] = from reference (8); cited from earlier work

Q: Which results are given for `Nc1cc(C(F)(F)F)c(-c2cc(N3CCOCC3)nc(N3CCOCC3)n2)cn1` [Compound A, 5-(2,6-di-morpholin-4-yl-pyrimidin-4-yl)-4-trifluoromethyl-pyridin-2-ylamine]?
A: inhibition in the number of human cells in the brain, HER-2 flow cytometry ([1]; 37 treatments, HER-2-positive cells in dissociated brain (FIG. 2B)): > 90%; inhibition in the number of human cells in the brain, human-specific qPCR ([1]; 37 treatments, brain metastatic burden by qPCR (FIG. 2A)): > 90%; number of bone metastases decreased ([1]; 37 treatments, visual count of metastatic sites per mouse (FIG. 2C)): 67%; growth of 453-EGFP in heavily colonized organs (brain and lungs) ([1]; brain and lungs (FIG. 1B-C)): strongly inhibited; incidence of metastases in different sites ([1]; brain, bone marrow and liver, p<0.05 at least, Fisher's exact test (FIG. 1A)): a sizeable proportion of mice were metastasis-free; also recorded: significant inhibition; reduction of the metastatic burden ([1]; different target organs): highly significant and widespread reduction; penetration of the blood-brain barrier [2]: excellent penetration
